In ChEMBL document CHEMBL4351028, “Benzoyl indoles with metabolic stability as reversal agents for ABCG2-mediated multidrug resistance” (Eur J Med Chem, 2019):
Active and inactive are the calls of the source. The calls are words filed in the database; no cut-off is given here.

Columns and labels:
[1] = Cytotoxicity against human NCI-H460/MX20 cells assessed as inhibition of cell viability at 5 to 25 uM incubated for 2 hrs by MTT assay relative to control; type: cell-based; conditions: read-out: INH
[2] = Cytotoxicity against human NCI-H460/MX20 cells assessed as concentration that causes inhibition of cell viability by <=20% incubated for 24 hrs by MTT assay; type: cell-based
[3] = target: T1, Broad substrate specificity ATP-binding cassette transporter ABCG2 (Homo sapiens, UniProt Q9UNQ0); assay: (§1) Reversal of ABCG2-mediated multidrug resistance in human NCI-H460/MX20 cells assessed as potentiation of mitoxantrone-induced cytotoxicity by measuring inhibition of cell proliferation pretreated for 2 hrs followed by mitoxantrone addition and measured after 44 hrs by MTT assay; type: cell-based
T1 sequence (Q9UNQ0 whole entry): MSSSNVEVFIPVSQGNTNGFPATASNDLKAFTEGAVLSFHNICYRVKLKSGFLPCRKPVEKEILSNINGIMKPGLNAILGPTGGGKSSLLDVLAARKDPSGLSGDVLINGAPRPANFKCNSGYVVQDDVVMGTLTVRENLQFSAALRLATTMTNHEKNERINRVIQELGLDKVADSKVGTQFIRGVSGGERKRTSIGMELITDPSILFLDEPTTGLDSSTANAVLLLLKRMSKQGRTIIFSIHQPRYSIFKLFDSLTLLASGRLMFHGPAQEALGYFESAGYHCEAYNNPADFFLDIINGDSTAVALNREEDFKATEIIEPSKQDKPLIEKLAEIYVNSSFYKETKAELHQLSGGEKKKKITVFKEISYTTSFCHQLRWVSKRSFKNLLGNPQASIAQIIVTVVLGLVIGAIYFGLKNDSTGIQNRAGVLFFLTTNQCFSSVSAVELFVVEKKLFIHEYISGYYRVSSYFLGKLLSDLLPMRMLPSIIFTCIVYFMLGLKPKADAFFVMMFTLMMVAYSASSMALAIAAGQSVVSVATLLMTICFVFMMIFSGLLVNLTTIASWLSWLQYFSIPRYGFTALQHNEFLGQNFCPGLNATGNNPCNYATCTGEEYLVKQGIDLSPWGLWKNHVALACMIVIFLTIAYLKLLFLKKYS

[4] = Cytotoxicity against HEK293 cells harbouring ABCG2-482-G2 mutant assessed as inhibition of cell viability at 5 to 25 uM incubated for 2 hrs by MTT assay relative to control; type: ADME, cell-based; conditions: human, read-out: INH
[5] = target: T1, Broad substrate specificity ATP-binding cassette transporter ABCG2; assay: Competitive substrate activity at ABCG2 (unknown origin) expressed in High Five insect cell vesicle membrane assessed as stimulation of ATPase activity by PREDEASY ATPase assay
NCI-H460 [6] = assay: Cytotoxicity against human NCI-H460 cells assessed as concentration that causes inhibition of cell viability by <=20% incubated for 24 hrs by MTT assay; type: cell-based; conditions: nci-h460, 24 h
NCI-H460 [7] = assay: Cytotoxicity against human NCI-H460 cells assessed as inhibition of cell viability incubated for 2 hrs by MTT assay; type: cell-based; conditions: NCI-H460, 2 h, read-out: IC50
[8] = Cytotoxicity against human NCI-H460/MX20 cells assessed as inhibition of cell viability incubated for 2 hrs by MTT assay; type: cell-based; conditions: NCI-H460/MX20, 2 h
[9] = target: T1, Broad substrate specificity ATP-binding cassette transporter ABCG2; assay: Inhibition of ABCG2-mediated mitoxantrone efflux in human NCI-H460/MX20 cells assessed as increase in accumulation of [3H]MX at 25 uM incubated for 2 hrs followed by [3H]MX addition further incubated for 2 hrs by liquid scintillation counter relative to control; type: cell-based
[10] = Metabolic stability in human liver microsomes assessed as compound remaining at 100 uM incubated for 1 hr by HPLC analysis; type: ADME, Microsome; conditions: read-out: Stability
[11] = Cytotoxicity against HEK293 cells harbouring ABCG2-482-T7 mutant assessed as inhibition of cell viability at 5 to 25 uM incubated for 2 hrs by MTT assay relative to control; type: ADME, cell-based; conditions: human, read-out: INH
HEK293 [12] = assay: Reversal of ABCG2 482-T7 mutant (unknown origin) expressed in HEK293 cells-mediated multidrug resistance assessed as potentiation of mitoxantrone-induced cytotoxicity at 10 to 25 uM pretreated for 2 hrs followed by mitoxantrone challenge and measured after 44 hrs by MTT assay; type: cell-based; conditions: Homo sapiens
[13] = target: T1, Broad substrate specificity ATP-binding cassette transporter ABCG2; assay: Reversal of ABCG2-mediated multidrug resistance in human NCI-H460/MX20 cells assessed as potentiation of mitoxantrone-induced cytotoxicity at 10 to 25 uM pretreated with compound for 2 hrs followed by mitoxantrone challenge for 44 hrs by MTT assay; type: cell-based
[14] = target: T1, Broad substrate specificity ATP-binding cassette transporter ABCG2; assay: Reversal of ABCG2-mediated multidrug resistance in human S1-M1-80 cells assessed as potentiation of mitoxantrone-induced cytotoxicity at 25 uM pretreated with compound for 2 hrs followed by mitoxantrone challenge for 44 hrs by MTT assay; type: cell-based
[15] = Cytotoxicity against human NCI-H460 cells assessed as inhibition of cell viability at 5 to 25 uM incubated for 2 hrs by MTT assay relative to control; type: cell-based; conditions: read-out: INH
[16] = target: T1, Broad substrate specificity ATP-binding cassette transporter ABCG2; assay: as §1, with “proliferation at 25 uM” for “proliferation”, “assay (reference value: 24 +/- 3%)” for “assay”; type: cell-based
[17] = target: T1, Broad substrate specificity ATP-binding cassette transporter ABCG2; assay: Inhibition of ABCG2-mediated mitoxantrone efflux in human NCI-H460/MX20 cells assessed as increase in accumulation of [3H]MX at 10 uM incubated for 2 hrs followed by [3H]MX addition and measured after 2 hrs by liquid scintillation counter; type: cell-based
[18] = Cytotoxicity against HEK293 cells expressing wild type ABCG2-482-R2 assessed as inhibition of cell viability at 5 to 25 uM incubated for 2 hrs by MTT assay relative to control; type: ADME, cell-based; conditions: human, read-out: INH
[19] = Cytotoxicity against human S1-M1-80 cells assessed as inhibition of cell viability at 5 to 25 uM incubated for 2 hrs by MTT assay relative to control; type: cell-based; conditions: read-out: INH
HEK293 [20] = assay: Reversal of ABCG2 482-G2 mutant (unknown oirigin) expressed in HEK293 cells-mediated multidrug resistance assessed as potentiation of mitoxantrone-induced cytotoxicity at 10 to 25 uM pretreated for 2 hrs followed by mitoxantrone addition and measured after 44 hrs by MTT assay; type: cell-based; conditions: Homo sapiens
[21] = target: T1, Broad substrate specificity ATP-binding cassette transporter ABCG2; assay: Reversal of ABCG2 (unknown origin) expressed in HEK293 cells-mediated multidrug resistance assessed as potentiation of mitoxantrone-induced cytotoxicity at 10 to 25 uM pretreated for 2 hrs followed by mitoxantrone addition and measured after 44 hrs by MTT assay; type: cell-based; conditions: hek293, 44 h
[22] = Cytotoxicity against human S1 cells assessed as inhibition of cell viability at 5 to 25 uM incubated for 2 hrs by MTT assay relative to control; type: cell-based; conditions: read-out: INH
Homo sapiens [23] = organism: Homo sapiens; assay: Effect on ABCG2 expression in human NCI-H460/MX20 cells at 25 uM incubated up to 72 hrs by Western blot analysis; type: functional, cell-based
[24] = target: T1, Broad substrate specificity ATP-binding cassette transporter ABCG2; assay: Competitive substrate activity at ABCG2 (unknown origin) expressed in High Five insect cell vesicle membrane assessed as stimulation of ATPase activity up to 40 uM by PREDEASY ATPase assay relative to control
Homo sapiens [25] = organism: Homo sapiens; assay: Effect on ABCG2 internalization in human NCI-H460/MX20 cells at 25 uM incubated for 72 hrs by immunofluorescence analysis; type: functional, cell-based
[26] = Cytotoxicity against HEK293 cells transfected with pcDNA3.1 assessed as inhibition of cell viability at 5 to 25 uM incubated for 2 by MTT assay relative to control; type: cell-based; conditions: human, read-out: INH
[27] = target: T1, Broad substrate specificity ATP-binding cassette transporter ABCG2; assay: Reversal of ABCG2-mediated multidrug resistance in human NCI-H460/MX20 cells assessed as potentiation of cisplatin-induced cytotoxicity at 25 uM pretreated for 2 hrs followed by cisplatin addition and measured after 44 hrs by MTT assay; type: cell-based
[28] = target: T1, Broad substrate specificity ATP-binding cassette transporter ABCG2; assay: Reversal of ABCG2-mediated multidrug resistance in human S1-M1-80 cells assessed as potentiation of doxorubicin-induced cytotoxicity at 25 uM pretreated with compound for 2 hrs followed by doxorubicin challenge for 44 hrs by MTT assay; type: cell-based
ABCG2 [29] = target: T2, ABCG2 (Homo sapiens, UniProt Q9UNQ0); assay: Competitive substrate activity at ABCG2 (unknown origin) expressed in High Five insect cell vesicle membrane assessed as stimulation of ATPase activity at 0.21 uM by PREDEASY ATPase assay relative to control; conditions: High Five insect cell vesicle membranes expressing ABCG2
T2 sequence (Q9UNQ0 whole entry): T1 sequence (Q9UNQ0 whole entry)

Homo sapiens [30] = organism: Homo sapiens; assay: Effect on ABCG2 internalization in human NCI-H460/MX20 cells at 5 uM incubated for 72 hrs by immunofluorescence analysis; type: functional, cell-based
[31] = target: T1, Broad substrate specificity ATP-binding cassette transporter ABCG2; assay: as §1, with “proliferation at 10 uM” for “proliferation”, “assay (reference value: 24 +/- 3%)” for “assay”; type: cell-based
ABCG2 [32] = target: T2, ABCG2; assay: Competitive substrate activity at ABCG2 (unknown origin) expressed in High Five insect cell vesicle membrane assessed as stimulation of ATPase activity at 0.75 uM by PREDEASY ATPase assay relative to control; conditions: High Five insect cell vesicle membranes expressing ABCG2
[33] = target: T1, Broad substrate specificity ATP-binding cassette transporter ABCG2; assay: Reversal of ABCG2-mediated multidrug resistance in human NCI-H460/MX20 cells assessed as potentiation of mitoxantrone-induced cytotoxicity at 2.5 to 5 uM pretreated with compound for 2 hrs followed by mitoxantrone challenge for 44 hrs by MTT assay; type: cell-based
Homo sapiens [34] = organism: Homo sapiens; assay: Effect on ABCG2 expression in human NCI-H460/MX20 cells at 5 uM incubated up to 72 hrs by Western blot analysis; type: functional, cell-based
[35] = target: T1, Broad substrate specificity ATP-binding cassette transporter ABCG2; assay: Reversal of ABCG2-mediated multidrug resistance in human S1-M1-80 cells assessed as potentiation of mitoxantrone-induced cytotoxicity at 5 uM pretreated with compound for 2 hrs followed by mitoxantrone challenge for 44 hrs by MTT assay; type: cell-based
[36] = target: T1, Broad substrate specificity ATP-binding cassette transporter ABCG2; assay: Inhibition of ABCG2-mediated mitoxantrone efflux in human NCI-H460/MX20 cells assessed as increase in accumulation of [3H]MX at 5 uM incubated for 2 hrs followed by [3H]MX addition further incubated for 2 hrs by liquid scintillation counter relative to control; type: cell-based
[37] = target: T1, Broad substrate specificity ATP-binding cassette transporter ABCG2; assay: Reversal of ABCG2-mediated multidrug resistance in human S1-M1-80 cells assessed as potentiation of doxorubicin-induced cytotoxicity at 5 uM pretreated with compound for 2 hrs followed by doxorubicin challenge for 44 hrs by MTT assay; type: cell-based
HEK293 [38] = assay: Reversal of ABCG2 482-T7 mutant (unknown origin) expressed in HEK293 cells-mediated multidrug resistance assessed as potentiation of mitoxantrone-induced cytotoxicity at 2.5 to 5 uM pretreated for 2 hrs followed by mitoxantrone addition and measured after 44 hrs by MTT assay; type: cell-based; conditions: Homo sapiens
[39] = target: T1, Broad substrate specificity ATP-binding cassette transporter ABCG2; assay: Reversal of ABCG2-mediated multidrug resistance in human NCI-H460/MX20 cells assessed as cisplatin-induced cytotoxicity at 5 uM pretreated with compound for 2 hrs followed by cisplatin challenge for 44 hrs by MTT assay; type: cell-based
[40] = target: T1, Broad substrate specificity ATP-binding cassette transporter ABCG2; assay: Reversal of ABCG2 (unknown origin) expressed in HEK293 cells-mediated multidrug resistance assessed as potentiation of mitoxantrone-induced cytotoxicity at 2.5 to 5 uM pretreated for 2 hrs followed by mitoxantrone addition and measured after 44 hrs by MTT assay; type: cell-based; conditions: hek293, 44 h
HEK293 [41] = assay: Reversal of ABCG2 482-G2 mutant (unknown origin) expressed in HEK293 cells-mediated multidrug resistance assessed as potentiation of mitoxantrone-induced cytotoxicity at 2.5 to 5 uM pretreated for 2 hrs followed by mitoxantrone addition and measured after 44 hrs by MTT assay; type: cell-based; conditions: Homo sapiens

SMILES	cytotoxicity at 2 h, up to 25 µM [1] [%]	Activity [2] [µM]	inhibition (INH) [3]	cytotoxicity at 2 h, up to 25 µM [4] [%]	Activity [5]	Activity (NCI-H460 [6]) [µM]	IC50 (NCI-H460 [7]) [µM]	IC50 [8] [µM]	remaining at 1 h, 100 µM [10] [%]	cytotoxicity at 2 h, up to 25 µM [11] [%]	cytotoxicity at 2 h, up to 25 µM [15] [%]	cytotoxicity at 2 h, up to 25 µM [18] [%]	cytotoxicity at 2 h, up to 25 µM [19] [%]	cytotoxicity at 2 h, up to 25 µM [22] [%]	fold change (FC) [24]	cytotoxicity at up to 25 µM [26] [%]	also measured
COc1ccc(C(=O)c2ccc3[nH]cc(C(=O)c4ccc(OC)cc4)c3c2OC)cc1	< 20	25	Dose-dependent effect	< 20	Dose-dependent effect	25	> 100	> 100	56	< 20	< 20	< 20	< 20	< 20	3.01	< 20	fold change (FC) [9]: 3; Activity (HEK293 [12]): Active; Activity [13]: Active; Activity [14]: Active; inhibition at 25 µM [16]: > 87%; Activity [17]: Active; Activity (HEK293 [20]): Active; Activity [21]: Active; Activity (Homo sapiens [23]): inactive; Activity (Homo sapiens [25]): inactive; Activity [27]: Not Active; Activity [28]: Active; Emax at 0.21 µM (ABCG2 [29]): 50%
COc1ccc(C(=O)c2c[nH]c3ccc(OC)cc23)cc1	< 20	10	Dose-dependent effect	< 20	Dose-dependent effect	10	> 100	66.9	78	< 20	< 20	< 20	< 20	< 20	2.03	< 20	Activity (Homo sapiens [30]): inactive; inhibition at 10 µM [31]: > 87%; Emax at 0.75 µM (ABCG2 [32]): 50%; Activity [33]: Active; Activity (Homo sapiens [34]): inactive; Activity [35]: Active; fold change (FC) [36]: 2.7; Activity [37]: Active; Activity (HEK293 [38]): Active; Activity [39]: Not Active; Activity [40]: Active; Activity (HEK293 [41]): Active
